Values joined by “and” are separate entries in the source; they are usually repeats but may differ in a detail not shown here. Equal values may be shown once. ± gives the uncertainty stated by the source.
Assay: xn = mol fraction of the nth substance listed

CCCCCCCCCCBr + ClC(Cl)(Cl)Cl
101 kPa
Conditions	viscosity [mPa·s]
297.75 K, x1 = 0.0484	0.9823 ± 0.021
297.75 K, x1 = 0.0969	1.057 ± 0.023
297.75 K, x1 = 0.1945	1.208 ± 0.026
297.75 K, x1 = 0.3918	1.52 ± 0.033
297.75 K, x1 = 0.5923	1.858 ± 0.04
297.75 K, x1 = 0.7944	2.106 ± 0.045
303.95 K, x1 = 0.0456	0.8918 ± 0.019
303.95 K, x1 = 0.0914	0.9574 ± 0.021
303.95 K, x1 = 0.1852	1.105 ± 0.024
303.95 K, x1 = 0.2667	1.2 ± 0.026
303.95 K, x1 = 0.5802	1.618 ± 0.035
303.95 K, x1 = 0.7825	1.864 ± 0.04
313.55 K, x1 = 0.0457	0.7792 ± 0.017
313.55 K, x1 = 0.092	0.8323 ± 0.018
313.55 K, x1 = 0.1856	0.948 ± 0.021
313.55 K, x1 = 0.378	1.171 ± 0.025
313.55 K, x1 = 0.5776	1.377 ± 0.03
313.55 K, x1 = 0.7832	1.562 ± 0.034

S + ClC(Cl)Cl
298.15 K, 101 kPa
Conditions	viscosity [mPa·s]
x1 = 0.00673	0.5257 ± 0.014
x1 = 0.00998	0.5206 ± 0.014

FC(F)(Cl)C(F)(F)Cl + FC(F)Cl
101 kPa
Conditions	viscosity [mPa·s]
293.25 K, x2 = 0.182	0.3196 ± 0.0087
293.25 K, x2 = 0.457	0.2521 ± 0.0069
293.25 K, x2 = 0.568	0.2391 ± 0.0065
293.25 K, x2 = 0.663	0.2175 ± 0.0059
293.25 K, x2 = 0.748	0.1992 ± 0.0054
293.35 K, x2 = 0.947	0.1767 ± 0.0048
293.75 K, x2 = 0.329	0.2853 ± 0.0078
312.85 K, x2 = 0.457	0.2097 ± 0.0057
312.85 K, x2 = 0.663	0.1757 ± 0.0048
312.95 K, x2 = 0.182	0.2474 ± 0.0067
312.95 K, x2 = 0.821	0.1515 ± 0.0041
313.05 K, x2 = 0.568	0.1902 ± 0.0052
313.05 K, x2 = 0.748	0.1648 ± 0.0045
313.05 K, x2 = 0.947	0.141 ± 0.0038
313.15 K, x2 = 0.891	0.1461 ± 0.004
313.55 K, x2 = 0.329	0.2284 ± 0.0062

Clc1ccc(Cl)c(Cl)c1 + Nc1cccc(Cl)c1
viscosity [mPa·s], 100 kPa
Conditions	x2 = 0.0895	x2 = 0.1795	x2 = 0.3125	x2 = 0.4256	x2 = 0.5169	x2 = 0.6254	x2 = 0.7145	x2 = 0.8102	x2 = 0.9012
303.15 K	1.993 ± 0.015	2.225 ± 0.016	2.565 ± 0.018	2.851 ± 0.02	3.079 ± 0.022	3.348 ± 0.024	3.566 ± 0.025	3.798 ± 0.027	4.017 ± 0.029
308.15 K	1.825 ± 0.014	2.033 ± 0.015	2.337 ± 0.017	2.593 ± 0.019	2.797 ± 0.021	3.037 ± 0.022	3.231 ± 0.024	3.437 ± 0.025	3.631 ± 0.027
313.15 K	1.658 ± 0.013	1.843 ± 0.014	2.111 ± 0.016	2.336 ± 0.018	2.516 ± 0.019	2.727 ± 0.021	2.896 ± 0.022	3.078 ± 0.024	3.248 ± 0.025
318.15 K	1.493 ± 0.013	1.653 ± 0.014	1.887 ± 0.015	2.083 ± 0.017	2.237 ± 0.018	2.419 ± 0.02	2.566 ± 0.021	2.722 ± 0.022	2.867 ± 0.023

Clc1ccc(Cl)c(Cl)c1 + Nc1ccccc1Cl
viscosity [mPa·s], 101 kPa
Conditions	x2 = 0.1164	x2 = 0.2287	x2 = 0.337	x2 = 0.4415	x2 = 0.5425	x2 = 0.6402	x2 = 0.7346	x2 = 0.8259	x2 = 0.9143
303.15 K	1.936 ± 0.04	2.118 ± 0.044	2.307 ± 0.048	2.504 ± 0.052	2.708 ± 0.056	2.919 ± 0.061	3.137 ± 0.065	3.361 ± 0.07	3.59 ± 0.075
308.15 K	1.773 ± 0.037	1.935 ± 0.04	2.103 ± 0.044	2.277 ± 0.047	2.456 ± 0.051	2.639 ± 0.055	2.827 ± 0.059	3.018 ± 0.063	3.214 ± 0.067
313.15 K	1.614 ± 0.034	1.761 ± 0.037	1.912 ± 0.04	2.067 ± 0.043	2.226 ± 0.046	2.388 ± 0.05	2.553 ± 0.053	2.72 ± 0.057	2.889 ± 0.06
318.15 K	1.46 ± 0.03	1.595 ± 0.033	1.734 ± 0.036	1.875 ± 0.039	2.019 ± 0.042	2.165 ± 0.045	2.313 ± 0.048	2.462 ± 0.051	2.612 ± 0.054

CC(N)C(=O)O (stereo unspecified) + O
viscosity, 101 kPa
Conditions	x1 = 0.0004	x1 = 0.0007	x1 = 0.001	x1 = 0.0018	x1 = 0.0022	x1 = 0.0025	x1 = 0.0029	x1 = 0.0032	x1 = 0.0036
293.15 K	1.006 ± 0.021 mPa·s	1.012 ± 0.021 mPa·s	1.017 ± 0.021 mPa·s and 1.022 ± 0.021 mPa·s	–	–	1.038 ± 0.021 mPa·s	1.043 ± 0.021 mPa·s	–	–
298.15 K	0.8956 ± 0.021 mPa·s	0.9003 ± 0.021 mPa·s	0.9054 ± 0.021 mPa·s	0.915 ± 0.021 mPa·s	0.9199 ± 0.021 mPa·s	0.9246 ± 0.021 mPa·s	0.929 ± 0.021 mPa·s	0.934 ± 0.021 mPa·s	0.9389 ± 0.021 mPa·s
303.15 K	0.8028 ± 0.021 mPa·s	0.8077 ± 0.021 mPa·s	0.8122 ± 0.021 mPa·s	0.8213 ± 0.021 mPa·s	0.8256 ± 0.021 mPa·s	0.8299 ± 0.021 mPa·s	0.8341 ± 0.021 mPa·s	0.8382 ± 0.021 mPa·s	0.8429 ± 0.021 mPa·s
308.15 K	0.7254 ± 0.021 mPa·s	0.7303 ± 0.021 mPa·s	0.7349 ± 0.021 mPa·s	0.7436 ± 0.021 mPa·s	0.7478 ± 0.021 mPa·s	0.7519 ± 0.021 mPa·s	0.7558 ± 0.021 mPa·s	0.7599 ± 0.021 mPa·s	0.7635 ± 0.021 mPa·s
313.15 K	0.6592 ± 0.021 mPa·s	0.6641 ± 0.021 mPa·s	0.6726 ± 0.021 mPa·s	0.6767 ± 0.021 mPa·s	0.6804 ± 0.021 mPa·s	–	0.688 ± 0.021 mPa·s	0.6916 ± 0.021 mPa·s	0.6953 ± 0.021 mPa·s

CC(O)CN1CC[NH+](CC(C)O)CC1.CC(O)CN1CC[NH+](CC(C)O)CC1.O=S(=O)([O-])[O-] (stereo unspecified) + O
viscosity [mPa·s], 101 kPa
Conditions	298.15 K	303.15 K	308.15 K	313.15 K	318.15 K	323.15 K
x1 = 0.0024	1.1 ± 0.026	0.975 ± 0.023	0.869 ± 0.02	0.816 ± 0.02	0.721 ± 0.016	0.665 ± 0.015
x1 = 0.00505	1.382 ± 0.034	1.232 ± 0.03	1.111 ± 0.026	1.026 ± 0.024	0.906 ± 0.021	0.807 ± 0.018
x1 = 0.00812	1.834 ± 0.047	1.634 ± 0.042	1.434 ± 0.036	1.355 ± 0.032	1.176 ± 0.028	1.025 ± 0.024
x1 = 0.0117	2.454 ± 0.07	2.221 ± 0.061	1.934 ± 0.051	1.739 ± 0.043	1.513 ± 0.037	1.311 ± 0.032
x1 = 0.0158	3.565 ± 0.11	3.115 ± 0.091	2.653 ± 0.074	2.327 ± 0.062	2.009 ± 0.051	1.727 ± 0.043
x1 = 0.0208	5.31 ± 0.14	4.49 ± 0.12	3.747 ± 0.1	3.216 ± 0.08	2.675 ± 0.066	2.282 ± 0.055

CCCCCCCCCCCCCC[P+](CCCCCC)(CCCCCC)CCCCCC.c1ccc2[n-]cnc2c1 + O
Conditions	viscosity [mPa·s]
298.15 K, 100 kPa, x2 = 0.759	207 ± 7

CCCC[NH3+].O=[N+]([O-])[O-] + O
Conditions	viscosity [mPa·s]
298.15 K, 101 kPa, x1 = 0.9022	65.05 ± 1.5

Cl.N=C(N)N + O
viscosity [mPa·s], 101.3 kPa
Conditions	x1 = 0.0018	x1 = 0.0045	x1 = 0.0089	x1 = 0.013	x1 = 0.0177
298.15 K	0.896 ± 0.025	0.901 ± 0.025	0.908 ± 0.025	0.915 ± 0.025	0.923 ± 0.025
308.15 K	0.722 ± 0.024	0.727 ± 0.024	0.735 ± 0.024	0.742 ± 0.024	0.748 ± 0.024
318.15 K	0.6 ± 0.024	0.604 ± 0.024	0.613 ± 0.024	0.621 ± 0.024	0.626 ± 0.024

Reference: the CheMixHub viscosity set
